Test results as given in patent publication US20180153840A1, “THE COMPOSITIONS OF GLYCEROL AND /OR NON-TOXIC AMINO ACIDS FOR INHIBITING AND DESTROYING BIOFILM, INCLUDING RELATED METHODS” (priority 2015, published 2018).
Read-outs that look alike come from different tables or passages of the source. One block for each molecule: values may come before it.

Key:
[1] = Procedure: (§1) For fungal biofilm assays, all solutions were prepared in RPMI 1640 medium. All bacterial biofilm solutions were prepared in Trypic Soy Broth (TSB), supplemented with 1% glucose (henceforth referred to as TSB-G). All subsequent procedures were performed in a manner that maintained sterility. A solution of each amino acid to be tested was prepared in weight to volume concentrations ranging from 0.1-5.0%. Amino acids were also tested in combinations. Compound solutions were homogenized with gentle agitation in the dark (4° C., 24 hours) before use.
(§2) All biofilm assays were performed using 384-well non-tissue culture treated polystyrene plates. The fungal species tested are as follows: Candida albicans, Candida guilliermondii Candida parapsilosis, Candida glabrata, Candida tropicalis and Candida dubliniensis. The bacterial species tested are as follows: Staphylococcus aureus (standard wild type and methicillin-resistant strain USA300), Escherichia coli, Pseudomonas aeruginosa and Staphylococcus epidermidis.

[2] = test system: bacterial and fungal biofilms; test: In vitro testing on bacterial and fungal biofilms; assay type: cell-based; details: for effect on bacterial and fungal biofilm (in words): in vitro
Procedure: as §1, §2
(§3) Fungal strains were streaked on Yeast Peptone Dextrose (YPD) agar plates and incubated at 30° C. for 48 hours. A single colony from each strain to be tested was inoculated into YPD broth and grown for 12 hours, at 30° C., shaking at 225 rpm. For the fungal biofilm inhibition assay, 1 μl of saturated overnight cell culture was added to either 80 μL of RPMI-1640 or RPMI-1640 supplemented with the amino acid compound solution to be tested, in a 384-well plate. The cells were allowed to adhere to the plate for 90 minutes at 37° C. with shaking (350 rpm). Loosely bound cells were washed once with phosphate buffered saline (PBS) and 80 ul of RPMI-1640, or RPMI-1640 supplemented with the amino acid compound solution was added to the plate. The plate was further incubated for 24 hours at 37° C. with shaking (350 rpm). Media was carefully aspirated and the biofilm was measured for fungal cell concentration by optical density at 600 nm. Twelve replicates were performed for each tested condition and the reported values were normalized to the control (RPMI-1640 media only).
(§4) For the fungal biofilm disruption assays, 80 μL of RPMI-1640 was added to the plate, along with 1 μL of overnight cell culture. The cells were allowed to adhere to the plate for 90 minutes at 37° C. with shaking (350 rpm). Loosely bound cells were washed once with PBS and 80 μL of RPMI-1640 was added to the plate. The plate was further incubated for 24 hours at 37° C. with shaking (350 rpm). Media was carefully aspirated from the mature biofilm and 80 μL of RPMI-1640, or RPMI-1640 supplemented with the amino acid compound solution to be tested, was gently added to the plate. The plate was further incubated for 24 hours at 37° C. with shaking (350 rpm). Media was carefully aspirated and the biofilm was measured for fungal cell concentration by optical density at 600 nm. Twelve replicates were performed for each tested condition and the reported values are normalized to the control (RPMI-1640 media only).
(§5) Bacterial strains were streaked on Blood Agar plates (5% sheep blood in Tryptic Soy Broth) and incubated at 37° C. for 24 hours. A single colony from each strain to be tested was inoculated in a TSB broth and grown for 12 hours, at 37° C. with shaking (225 rpm).
(§6) For the bacterial biofilm inhibition assays, 1 μL of saturated overnight cell culture was added to either 80 μL of TSB-G, or TSB-G supplemented with the amino acid compound solution to be tested, in a 384-well plate. The cells were allowed to adhere to the plate for 60 minutes at 37° C. without shaking. The media was carefully aspirated and 80 μL of TSB-G, or TSB-G supplemented with the amino acid compound solution was added to the plate. The plate was further incubated for 24 hours at 37° C. without shaking. Media was carefully aspirated and the biofilm was measured for bacterial cell concentration by optical density at 600 nm.

[3] = test system: bacterial biofilms; test: Bacterial biofilm assays (sustained inhibition and/or disruption); assay type: cell-based, Staphylococcus aureus; details: individually, about 0.1 to about 5.0% weight to volume (cystathionine 0.2%); at least one of the two assays
Procedure: as §1, §2, §5
as §6, with “nm. Eight or twelve replicates were performed for each tested condition and the reported values were normalized to the control (TSB-G media only).” for “nm.”
(§7) For the bacterial biofilm disruption assays, 80 μL of TSB-G was added to the plate, along with 1 μL of overnight cell culture. The cells were allowed to adhere to the plate for 60 minutes at 37° C. without shaking. The media was carefully aspirated and 80 μL of TSB-G was added to the plate. The plate was further incubated for 24 hours at 37° C. without shaking. Media was carefully aspirated from the mature biofilm and 80 μL of TSB-G, or TSB-G supplemented with the amino acid to be tested, was gently added to the plate. The plate was further incubated for 24 hours at 37° C. without shaking. Media was aspirated and the biofilm was measured for bacterial cell concentration by optical density at 600 nm. Twelve replicates were performed for each tested condition and the reported values were normalized to the control (TSB-G media only).

[4] = test system: S. aureus biofilm; test: Bacterial biofilm disruption assay; assay type: cell-based; details: Staphylococcus aureus, read-out: Reduce B Biofilm
Procedure: as §1, §2, §5, §7

[5] = test system: C. albicans biofilm; test: Fungal biofilm inhibition assay; assay type: cell-based, Candida albicans; details: sustained inhibition assay, 1% amino acid, p≤0.001
Procedure: as §1, §2, §3

[6] = test system: C. albicans biofilm; test: Fungal biofilm disruption assay; assay type: cell-based, Candida albicans; details: 1% amino acid, p≤0.001
Procedure: as §1, §2, §4

[7] = test system: fungal biofilms; test: Fungal biofilm assays (sustained inhibition and/or disruption); assay type: cell-based, Candida albicans; details: at least one of the two assays (sustained inhibition and/or disruption); for anti-biofilm properties against fungal biofilms: administered individually
Procedure: as §1, §2, §3, §4

[8] = test system: bacteria (S. aureus) biofilm and fungal (C. albicans) biofilm; test: Sustained inhibition biofilm assay, bacterial and fungal together (Table C: Both/Neutral); assay type: cell-based, Staphylococcus aureus; Candida albicans; details: 1% amino acid
Procedure: as §1, §2
Fungal strains were streaked on Yeast Peptone Dextrose (YPD) agar plates and incubated at 30° C. for 48 hours. A single colony from each strain to be tested was inoculated into YPD broth and grown for 12 hours, at 30° C., shaking at 225 rpm. For the fungal biofilm inhibition assay, 1 μl of saturated overnight cell culture was added to either 80 μL of RPMI-1640 or RPMI-1640 supplemented with the amino acid compound solution to be tested, in a 384-well plate. The cells were allowed to adhere to the plate for 90 minutes at 37° C. with shaking (350 rpm). […] Media was carefully aspirated and the biofilm was measured for fungal cell concentration by optical density at 600 nm. […]
For the bacterial biofilm inhibition assays, 1 μL of saturated overnight cell culture was added to either 80 μL of TSB-G, or TSB-G supplemented with the amino acid compound solution to be tested, in a 384-well plate. […] Media was carefully aspirated and the biofilm was measured for bacterial cell concentration by optical density at 600 nm. […]

[9] = test system: S. aureus biofilm; test: Bacterial biofilm inhibition assay; assay type: cell-based, Staphylococcus aureus; details: sustained inhibition assay; S. aureus; 1% amino acid; p≤0.001
Procedure: as §1, §2, §5
as §6, with “nm. Eight or twelve replicates were performed for each tested condition and the reported values were normalized to the control (TSB-G media only).” for “nm.”

[10] = test system: bacteria (S. aureus) biofilm and fungal (C. albicans) biofilm; test: Disruption biofilm assay, bacterial and fungal together (Table D: Both/Neutral); assay type: cell-based, Staphylococcus aureus; Candida albicans; details: 1% amino acid
Procedure: as §1, §2
as §4, with “Twelve replicates were performed for each tested condition and the reported values are normalized to the control (RPMI-1640 media only).” left out
For the bacterial biofilm disruption assays, 80 μL of TSB-G was added to the plate, along with 1 μL of overnight cell culture. […] Media was aspirated and the biofilm was measured for bacterial cell concentration by optical density at 600 nm. […]

[11] = disruption assay, S. aureus, 1% amino acid, p≤0.001

Structure (SMILES): Cn1cnc(C[C@H](N)C(=O)O)c1 [1-Methylhistidine, 1-methyl-L-histidine]
solubility (in words) [1]: limited solubility
neutral, effect on bacterial or fungal biofilms ([2]; both assays (sustained inhibition and disruption)): no effect on bacterial or fungal biofilms

Structure (SMILES): Cn1cncc1C[C@H](N)C(=O)O [3-Methylhistidine, 3-methyl-L-histidine]
anti-biofilm properties against bacterial biofilms [3]: anti-biofilm properties against bacterial biofilms
inhibition at 1 % [4, 11]: 10 to 30%
Promote F Biofilm [5]: • (a single dot (●) signifies an effect in a range of about 10 to about 30% change)
Promote F Biofilm [6]: • (a single dot (●) signifies an effect in a range of about 10 to about 30% change)
support (improve) fungal biofilm growth [7]: support (improve) fungal biofilm growth

Structure (SMILES): N[C@@H](CC(=O)O)C(=O)O [Aspartic Acid, L-aspartic acid]
Reduce Both [8]: •• (two dots (●●) signifies an effect of greater than 30% change)
inhibition at 1 % [4, 11]: > 30%
effect on bacterial and fungal biofilm (in words) [2]: very active against biofilm
Reduce F Biofilm [5]: •• (two dots (●●) signifies an effect of greater than 30% change)
Reduce B Biofilm [9]: •• (two dots (●●) signifies an effect of greater than 30% change)
Reduce F Biofilm [6]: •• (two dots (●●) signifies an effect of greater than 30% change)
Reduce Both [10]: •• (two dots (●●) signifies an effect of greater than 30% change)

solubility (in words) [1]: limited solubility
Structure (SMILES): N[C@@H](CCSC[C@H](N)C(=O)O)C(=O)O [Cystathionine, L-cystathionine]
anti-biofilm properties against bacterial biofilms [3]: anti-biofilm properties against bacterial biofilms
inhibition at 0.2 % ([4]; disruption assay, S. aureus, 0.2% amino acid): 10 to 30%

Structure (SMILES): N[C@@H](CS)C(=O)O [Cysteine, L-cysteine]
Reduce Both [8]: •• (two dots (●●) signifies an effect of greater than 30% change)
inhibition at 1 % [4, 11]: > 30%
Reduce F Biofilm [5]: •• (two dots (●●) signifies an effect of greater than 30% change)
Reduce B Biofilm [9]: •• (two dots (●●) signifies an effect of greater than 30% change)
Reduce F Biofilm [6]: •• (two dots (●●) signifies an effect of greater than 30% change)
Reduce Both [10]: •• (two dots (●●) signifies an effect of greater than 30% change)

Structure (SMILES): NCCO [Ethanolamine, ethanolamine]
anti-biofilm properties against bacterial biofilms [3]: anti-biofilm properties against bacterial biofilms
Reduce F Biofilm [5]: • (a single dot (●) signifies an effect in a range of about 10 to about 30% change)
anti-biofilm properties against fungal biofilms [7]: anti-biofilm properties against fungal biofilms

Structure (SMILES): N[C@@H](CCC(=O)O)C(=O)O [Glutamic Acid, L-glutamic acid]
Reduce Both [8]: •• (two dots (●●) signifies an effect of greater than 30% change)
inhibition at 1 % [4, 11]: > 30%
effect on bacterial and fungal biofilm (in words) [2]: very active against biofilm
Reduce F Biofilm [5]: •• (two dots (●●) signifies an effect of greater than 30% change)
Reduce B Biofilm [9]: •• (two dots (●●) signifies an effect of greater than 30% change)
Reduce F Biofilm [6]: •• (two dots (●●) signifies an effect of greater than 30% change)
Reduce Both [10]: •• (two dots (●●) signifies an effect of greater than 30% change)

Structure (SMILES): O=C(O)[C@@H]1C[C@@H](O)CN1 [Hydroxyproline, Trans-4-hydroxy-L-proline]
anti-biofilm properties against bacterial biofilms [3]: anti-biofilm properties against bacterial biofilms
inhibition at 1 % [4]: 10 to 30%
Reduce F Biofilm [5]: • (a single dot (●) signifies an effect in a range of about 10 to about 30% change)
Reduce B Biofilm [9]: • (a single dot (●) signifies an effect in a range of about 10 to about 30% change)
anti-biofilm properties against fungal biofilms [7]: anti-biofilm properties against fungal biofilms

Structure (SMILES): N[C@@H](COP(=O)(O)O)C(=O)O [Phosphoserine, O-phospho-L-serine]
anti-biofilm properties against bacterial biofilms [3]: anti-biofilm properties against bacterial biofilms
inhibition at 1 % [4, 11]: 10 to 30%
Reduce F Biofilm [6]: • (a single dot (●) signifies an effect in a range of about 10 to about 30% change)
anti-biofilm properties against fungal biofilms [7]: anti-biofilm properties against fungal biofilms

Structure (SMILES): CC(C)[C@H](N)C(=O)O [Valine, L-valine]
effect on bacterial and fungal biofilm (in words) [2]: promote bacterial and fungal biofilm
Promote F Biofilm [5]: • (a single dot (●) signifies an effect in a range of about 10 to about 30% change)
Promote F Biofilm [6]: • (a single dot (●) signifies an effect in a range of about 10 to about 30% change)
support (improve) fungal biofilm growth [7]: support (improve) fungal biofilm growth
